From US20220221458A1, “NOROVIRUS-BINDING PEPTIDE” (Kao Corporation, priority 2019, published 2022)

These substances were tested on norovirus VLPs (GII.4, GII.3, GII.17) (assay: In vitro selection by cDNA display against VLPs with appearance frequency analysis of sequences). Conditions: count among peptide aptamer sequences obtained after in vitro selection cycles (7 cycles GII.4, 5 cycles GII.3 and GII.17).

Row | Substance | Appearance Frequency
1 | 224 (PDRFCA; Designed peptide) [compound 224] | 6
2 | 199 (IGRTFH; Designed peptide) [compound 199] | 6
3 | 17 (RIGHMR; Designed peptide) [compound 17] | 13
4 | 156 (VRNLVH; Designed peptide) [compound 156] | 7
5 | 15 (SIGVDR; Designed peptide) [compound 15] | 14
6 | 264 (WTMSPA; Designed peptide) [compound 264] | 6
7 | 164 (AKQRFT; Designed peptide) [compound 164] | 6
8 | 165 (ARNHGS; Designed peptide) [compound 165] | 6
9 | 129 (MHSSLS; Designed peptide) [compound 129] | 7
10 | 52 (VRYPEI; Designed peptide) [compound 52] | 10
11 | 93 (THACAH; Designed peptide) [compound 93] | 8
12 | 6 (FLDTLG; Designed peptide) [compound 6] | 17
13 | 55 (GTRHPS; Designed peptide) [compound 55] | 9
14 | 210 (LSLRSQ; Designed peptide) [compound 210] | 6
15 | 220 (NPVHIK; Designed peptide) [compound 220] | 6
16 | 79 (GWYFHA; Designed peptide) [compound 79] | 8
17 | 62 (RALAKR; Designed peptide) [compound 62] | 9
18 | 244 (RTVPSS; Designed peptide) [compound 244] | 6
19 | 42 (GNSPYT; Designed peptide) [compound 42] | 10
20 | 77 (GMLRFP; Designed peptide) [compound 77] | 8
21 | 253 (SSKSFA; Designed peptide) [compound 253] | 6
22 | 113 (GMSCGI; Designed peptide) [compound 113] | 7
23 | 187 (HDYVSE; Designed peptide) [compound 187] | 6

Row | Substance | Appearance Frequency
24 | 38 (AGYPRY; Designed peptide) [compound 38] | 10
25 | 125 (LASMWR; Designed peptide) [compound 125] | 7
26 | 33 (SRHCVP; Designed peptide) [compound 33] | 11
27 | 34 (SVHTHR; Designed peptide) [compound 34] | 11
28 | 186 (HDSRIR; Designed peptide) [compound 186] | 6
29 | 179 (GCLSHH; Designed peptide) [compound 179] | 6
30 | 40 (FPFGST; Designed peptide) [compound 40] | 10
31 | 141 (RHKVHH; Designed peptide) [compound 141] | 7
32 | 98 (VVWFTD; Designed peptide) [compound 98] | 8
33 | 82 (ILGGHS; Designed peptide) [compound 82] | 8
34 | 163 (AFDGLG; Designed peptide) [compound 163] | 6
35 | 196 (HVGLDK; Designed peptide) [compound 196] | 6
36 | 268 (YRSNHG; Designed peptide) [compound 268] | 6
37 | 53 (ACRSAF; Designed peptide) [compound 53] | 9
38 | 231 (RGGRTL; Designed peptide) [compound 231] | 6
39 | 75 (FTMHTN; Designed peptide) [compound 75] | 8
40 | 147 (RSSSGR; Designed peptide) [compound 147] | 7
41 | 124 (KVHGST; Designed peptide) [compound 124] | 7
42 | 228 (QRVSFL; Designed peptide) [compound 228] | 6
43 | 56 (HRRGPS; Designed peptide) [compound 56] | 9
44 | 4 (HLRSIR; Designed peptide) [compound 4] | 18
45 | 139 (RFLMRH; Designed peptide) [compound 139] | 7
46 | 109 (GCHYQF; Designed peptide) [compound 109] | 7

Row | Substance | Appearance Frequency
47 | 149 (SDRVIA; Designed peptide) [compound 149] | 7
48 | 60 (NTHRHS; Designed peptide) [compound 60] | 9
49 | 142 (RIVGSA; Designed peptide) [compound 142] | 7
50 | 157 (VRPSNG; Designed peptide) [compound 157] | 7
51 | 136 (PVLHLH; Designed peptide) [compound 136] | 7
52 | 204 (KACAHL; Designed peptide) [compound 204] | 6
53 | 11 (GHPNPR; Designed peptide) [compound 11] | 15
54 | 131 (NHCPSR; Designed peptide) [compound 131] | 7
55 | 234 (RHGQFF; Designed peptide) [compound 234] | 6
56 | 31 (HIPSRH; Designed peptide) [compound 31] | 11
57 | 126 (LFHPWV; Designed peptide) [compound 126] | 7
58 | 64 (RKLFRN; Designed peptide) [compound 64] | 9
59 | 36 (VNGVSH; Designed peptide) [compound 36] | 11
60 | 123 (KRGGMV; Designed peptide) [compound 123] | 7
61 | 108 (FWHARL; Designed peptide) [compound 108] | 7
62 | 248 (SHWRSY; Designed peptide) [compound 248] | 6
63 | 107 (FRECLY; Designed peptide) [compound 107] | 7
64 | 66 (SGYYRV; Designed peptide) [compound 66] | 9
65 | 65 (SGTMQE; Designed peptide) [compound 65] | 9
66 | 148 (RTGLLS; Designed peptide) [compound 148] | 7
67 | 200 (IHSPQK; Designed peptide) [compound 200] | 6
68 | 1 (GRRYYI; Designed peptide) [compound 1] | 23
69 | 111 (GGGVTT; Designed peptide) [compound 111] | 7

Row | Substance | Appearance Frequency
70 | 92 (TGHIVW; Designed peptide) [compound 92] | 8
71 | 180 (GFGQWI; Designed peptide) [compound 180] | 6
72 | 258 (TNYLSF; Designed peptide) [compound 258] | 6
73 | 175 (FPFYHR; Designed peptide) [compound 175] | 6
74 | 13 (SVQSWK; Designed peptide) [compound 13] | 15
75 | 20 (DYVFCG; Designed peptide) [compound 20] | 12
76 | 239 (RLRDPQ; Designed peptide) [compound 239] | 6
77 | 130 (NASRFY; Designed peptide) [compound 130] | 7
78 | 229 (QVIQRL; Designed peptide) [compound 229] | 6
79 | 238 (RLHQCR; Designed peptide) [compound 238] | 6
80 | 237 (RKCIDR; Designed peptide) [compound 237] | 6
81 | 171 (DWPYSR; Designed peptide) [compound 171] | 6
82 | 44 (QSSKKF; Designed peptide) [compound 44] | 10
83 | 110 (GFAISR; Designed peptide) [compound 110] | 7
84 | 153 (TTKYMW; Designed peptide) [compound 153] | 7
85 | 19 (CTYVVE; Designed peptide) [compound 19] | 12
86 | 178 (GAKELS; Designed peptide) [compound 178] | 6
87 | 23 (LKASIR; Designed peptide) [compound 23] | 12
88 | 10 (GHHVSV; Designed peptide) [compound 10] | 15
89 | 57 (HVRPFY; Designed peptide) [compound 57] | 9
90 | 263 (VSDPVV; Designed peptide) [compound 263] | 6
